{"source": "patent US20220008365A1", "about": "“Treating Intraocular Retinoblastoma with Inhibitors of Histone Modification” (Vanderbilt University, priority 2018, published 2022)", "key": {"[1]": {"test_system": "human WERI-Rb1 retinoblastoma xenografts (vitreous seeds)", "test": "rabbit model of retinoblastoma vitreous seeds, intravitreal treatment, quantification of seed burden", "format": "in vivo", "details": "for reduction in tumor cells / tumor burden compared to saline: 3 weekly intravitreal injections (belinostat 350 μg; melphalan 25 μg), eyes harvested two weeks after final injection", "description": "(§1) For the first small animal IAC model developed by the inventors and referenced above, the rabbit's dominant ophthalmic artery was endovascularly cannulated, and each drug was injected at various doses. For intravitreal experiments, 1-3 weekly injections of each drug were performed. For the assessment of ocular toxicity described above, the testing platform the inventors developed included a broad array of tests including assessment of retinal structure and function by electroretinography, photography, fluorescein angiography, OCT, and OCT-Angiography, both before and after treatment. Human WERI-Rb1 retinoblastoma xenografts were treated with either intravenous, intra-arterial, or intravitreal chemotherapy. Assessment of efficacy against vitreous seeds was by both direct quantification of seed burden (vitreous harvesting and cell counting) and by assessment of apoptosis induction by immunohistochemistry.\nTo determine efficacy and toxicity of intravitreal HDAC inhibitors for retinoblastoma treatment, vitreous seeds were generated in cyclosporine-immunosuppressed rabbits. 1,000,000 human WERI-Rb1 human retinoblastoma cells were injected into each eye. The seeds were allowed to grow for two weeks to form the types of “spherules” seen clinically with vitreous seeds. 350 μg belinostat injections were used (equivalent to approximately 700 μg in a human-sized eye). The right eye was injected with belinostat three times, weekly. The left eye was injected with saline three times, weekly. The eyes were harvested for analysis two weeks after the final injection, and subjected to the cell quantification and apoptosis induction assays described in the above paragraph.\nTo compare the efficacy of an embodiment of the present invention with melphalan treatment, rabbit eyes were treated with 3 weekly injections of 350 μg belinostat by local (intravitreal) injection as described above. The melphalan comparator group received 3 weekly injections of 25 μg melphalan (the clinically-used dose) by intravitreal injection. Eyes were harvested two weeks after the final injection. […]"}, "[2]": {"test_system": "rabbit eye (retinal function)", "test": "retinal function by electroretinography after intravitreal injections", "format": "in vivo", "description": "as §1\nWe next wanted to use the toxicity assessment platform that we have developed previously (described above) to compare the toxicity of belinostat (in accordance with the present invention) to current standard-of-care melphalan. As with the efficacy experiments, rabbits received either 3 injections (weekly) of belinostat 350 μg (the effective dose in our rabbit model), or else belinostat 700 μg (double the clinically-effective dose in our rabbit model), or else melphalan 25 μg (the current, clinically-used dose)."}, "rabbit eye (retina)": {"test_system": "rabbit eye (retina)", "test": "retinal histopathology after intravitreal injections", "format": "in vivo", "details": "3 weekly intravitreal injections; belinostat 350 μg or 700 μg; melphalan 25 μg", "description": "as §1\nThe retina looks just as healthy as the saline-treated control eye."}, "[3]": {"test_system": "human retinoblastoma cells", "test": "killing of human retinoblastoma cells in cell culture", "format": "cell-based", "details": "for killing of human retinoblastoma cells by a brief pulse of HDAC inhibitor: brief pulse exposure, multiple concentrations", "description": "(§2) The present inventors have additionally determined the pharmacokinetics of belinostat when injected directly into the vitreous of the rabbit eye and have calculated its intraocular half-life in vivo. […] Specifically, once the PK curve of intravitreally-injected belinostat was determined and the half-life calculated, human retinoblastoma cells were incubated in cell culture in media containing varying concentrations of belinostat for a length of time equivalent to 5 intraocular half-lives, the media was then replaced with belinostat-free media and incubated for 7 days, and the number of surviving cells was then determined. Then, as an example, the present inventors back-calculated the initial intravitreal injection dose that would ensure that a concentration equal to or above the in vitro IC90 would be achieved even out to 5 half-lives, in vivo."}, "[4]": {"test": "intraocular pharmacokinetics after local administration", "format": "in vivo, rabbit", "details": "local administration routes (intravitreal, intra-arterial)", "description": "as §2"}, "[5]": {"details": "intra-arterial melphalan, patients; cited from earlier work"}}, "note": "“Also recorded” adds a separate entry of the source.", "data": [{"smiles": "O=C(/C=C/c1cccc(S(=O)(=O)Nc2ccccc2)c1)NO", "note": "[belinostat, N hydroxy-3-(3-phenylsulfamoyl-phenyl)-acrylamide]", "values": [{"measurement": "response of vitreous tumor seeds (photographs, FIG. 1)", "setting": "[1]; 350 μg belinostat intravitreal, three times weekly, vs saline-treated left eye", "value": "eradication of retinoblastoma vitreous seeds"}, {"measurement": "reduction in tumor cells / tumor burden compared to saline", "setting": "[1]", "value": 95, "unit": "%"}, {"measurement": "ERG parameters (retinal function)", "setting": "[2]; intravitreal belinostat 700 μg (double the clinically-effective dose), 3 weekly injections", "value": "only mild worsening of ERG parameters"}, {"measurement": "retinal functional loss and toxicity (A wave and B wave amplitude, FIG. 3)", "setting": "[2]; rabbit, in vivo", "value": "(absence of) retinal functional loss"}, {"measurement": "retinal toxicity or structural damage", "setting": "[2]; rabbit, in vivo", "value": "no such retinal toxicity or structural damage"}, {"measurement": "retinal architecture on histopathology", "setting": "rabbit eye (retina)", "value": "retained normal retinal architecture and healthy-appearing retina; also recorded: no evidence of retinal degeneration"}, {"measurement": "killing of human retinoblastoma cells by a brief pulse of HDAC inhibitor", "setting": "[3]", "value": "can be killed by exposure to a brief pulse"}, {"measurement": "killing of human retinoblastoma cells in vitro", "setting": "[3]; in vitro", "value": "effective for killing human retinoblastoma cells in vitro"}, {"measurement": "intraocular concentrations", "setting": "[4]", "value": "very high intraocular concentrations, but of very brief duration"}]}, {"smiles": "Nc1ccccc1NC(=O)c1ccc(CNC(=O)OCc2cccnc2)cc1", "note": "[etinostat]", "values": [{"measurement": "killing of human retinoblastoma cells by a brief pulse of HDAC inhibitor", "setting": "[3]", "value": "can be killed by exposure to a brief pulse"}]}, {"smiles": "N[C@@H](Cc1ccc(N(CCCl)CCCl)cc1)C(=O)O", "note": "[melphalan]", "values": [{"measurement": "reduction in tumor cells / tumor burden compared to saline", "setting": "[1]", "value": 93, "unit": "%"}, {"measurement": "retinal toxicity or structural damage", "setting": "[2]; intravitreal injection, dose not given", "value": "retinal structural damage"}, {"measurement": "reduction in measured retinal function (electroretinography amplitudes)", "setting": "[2]; intravitreal melphalan 25 μg, 3 weekly injections, across all parameters measured", "value": "66-90%"}, {"measurement": "retinal architecture on histopathology", "setting": "rabbit eye (retina)", "value": "severe atrophy of the retina; also recorded: evidence of retinal degeneration"}, {"measurement": "rates of complications", "setting": "[5]", "value": "~40", "unit": "%"}]}, {"smiles": "Cc1[nH]c2ccccc2c1CCNCc1ccc(/C=C/C(=O)NO)cc1", "note": "[panobinostat]", "values": [{"measurement": "killing of human retinoblastoma cells by a brief pulse of HDAC inhibitor", "setting": "[3]", "value": "can be killed by exposure to a brief pulse"}]}]}
